Measurements as given in patent publication US20020183256A1, “Cytostatic-integrin conjugates having specifically cleavable linking units” (priority 2000, published 2002).
Like-named read-outs stand apart in the source and are kept apart here. *1 amine or outer side, *2 acyl side, *3 side chain or, on linkers, in order; H or OH if unused. Where a SMILES comes first, the peptide text is derived from it. [ ]: non-standard residue; d: D form. The star is where a group is joined. X6 = O=C(O)CC(NS(=O)(=O)c1ccc(-c2cccc(NC(=O)Nc3nc4ccccc4[nH]3)c2)cc1)c1cccc(N*)c1; Camptothecin(20R,20-O) = CC[C@]1(O*)C(=O)OCc2c1cc1n(c2=O)Cc2cc3ccccc3nc2-1; X5 = O=C(Nc1cccc(-c2cccc(S(=O)(=O)*)c2)c1)Nc1nc2ccccc2[nH]1; X1 = CCCNC(=O)Nc1cccc(S(=O)(=O)Nc2cccc(C(CC(=O)O)N*)c2)c1; NH(1,4-C6H4)NHCS = S=C(Nc1ccc(N[*:1])cc1)[*:2]; X4 = O=C(O)CC(N[*:1])c1cccc(NC(=S)[*:2])c1; CO = O=C([*:1])[*:2]

Experiments:
HT29 = test: Growth inhibition test (MTT), cytotoxic action on tumour cell lines; type: cell-based, human
Description: (§1) The human large intestine cell lines SW 480 and HT29 (ATCC No. CCL 228 and HTB38 and the mouse melanoma cell line B16F10 (CRL 6475) were grown to confluence in Roux dishes in RPMI 1640 medium with addition of 10% FCS. They were then trypsinized and taken up in RPMI plus 10% FCS to a cell count of 50,000 cells or, for B16F10, 20,000 cells per ml. 100 μl of cell suspension/well were added to a 96 microwell plate and incubated at 37° C. for 1 day in a CO2 incubator. A further 100 μl of RPMI medium and 1 μl of DMSO were then added with the test substances. The growth was checked after day 6. For this, 25 μl of MTT solution (3-(4,5-dimethylthiazol-2-yl)-2,5-diphenyltetrazolium bromide) was added to each well at a starting concentration of 5 mg/ml of H2O. The plate was incubated at 37° C. for 5 hours in a CO2 incubator. The medium was then aspirated and 100 μl of i-propanol/well were added. After shaking with 100 μl of H2O for 30 min, the extinction was measured at 595 nm using a Multiplate Reader (BIO-RAD) 3550-UV).
(§2) The cytostatic action is indicated in Table 2 as an IC50 value, in each case for the individual cell lines.

SW 480 = test: as above; type: cell-based, human
Description: as §1, §2

B16F10 = test: as above; type: cell-based, mouse
Description: as §1, §2

MMP-2 = biological target: T1, MMP-2 (Homo sapiens, UniProt P08253); test: Cleavage of conjugates by MMP-2 in buffer (HPLC); type: biochemical; conditions: after 6 h incubation with MMP-2; buffer pH 7.5
T1 construct: purchased Calbiochem
T1 sequence (P08253 110-660): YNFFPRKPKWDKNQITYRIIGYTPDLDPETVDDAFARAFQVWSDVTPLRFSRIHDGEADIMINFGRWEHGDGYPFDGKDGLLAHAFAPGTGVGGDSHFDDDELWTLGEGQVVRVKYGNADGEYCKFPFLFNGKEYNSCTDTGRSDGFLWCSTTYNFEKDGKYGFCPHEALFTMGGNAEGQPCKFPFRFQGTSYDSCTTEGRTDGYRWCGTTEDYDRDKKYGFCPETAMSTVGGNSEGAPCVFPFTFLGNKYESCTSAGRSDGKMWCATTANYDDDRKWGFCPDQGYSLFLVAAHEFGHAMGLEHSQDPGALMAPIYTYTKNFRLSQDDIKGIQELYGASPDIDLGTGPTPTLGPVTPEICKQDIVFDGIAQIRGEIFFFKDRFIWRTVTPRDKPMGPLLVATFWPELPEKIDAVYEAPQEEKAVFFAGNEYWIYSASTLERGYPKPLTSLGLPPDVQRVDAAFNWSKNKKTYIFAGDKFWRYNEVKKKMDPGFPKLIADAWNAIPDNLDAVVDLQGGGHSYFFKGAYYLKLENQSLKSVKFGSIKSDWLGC
Description: 2.5 μl MMP-2 (Calbiochem) with a specific activity of 60 μU/μl are incubated with 10 nM of the conjugates exemplified in the example series 1-25 in 1 ml of a medium consisting of 50 mM Tris-HCl pH 7.5, 0.2 M NaCl, 10 mM CaCL2*2H2O and 0.05% Brij 35. The enzyme mediated cleavage of the conjugates is detected by HPLC analysis using an RP18 (5 μM) column with 70% HClO4/water (0.4% v/v) as eluent A and acentonitrile as eluent B (UV detection at […]). The efficiency of the cleavage is assessed by comparing the peak areas of the intact conjugate (starting material) and the cleavage product (tripeptide conjugate of camptothecin) after 6 h and 24 h incubation (cf. Table 5).

αvβ3 receptor = biological target: T2, αvβ3 receptor (Homo sapiens, UniProt P05106+P06756); test: αvβ3 binding test (echistatin displacement, WGA SPA beads); conditions: αvβ3 from human A375 cells
T2 construct: αvβ3 from human A375 cells was purified; endogenous in cells; host or cells: human A375 cells (receptor purified from the cells, analogous to Wong et al. 1996)
Description: αvβ3 from human A375 cells was purified analogously to a procedure which was described by Wong et al. (Molecular Pharmacology, 50, 529-537 (1996)). In each case, 10 μl of αvβ3 (5 ng) in TBS pH 7.6, 2 mM CaCl2, 1 mM MgCl2, 1% n-octylglucopyranoside (Sigma); 10 μl of test substance in TBS pH 7.6, 0.1% DMSO and 45 μl of TBS pH 7.6, 2 mM CaCl2, 1 mM MgCl2, 1 mM MnCl2 were incubated at room temperature for 1 h. In each case, 25 μl of WGA SPA beads (Amersham, 4 mg/ml) and 10 μl of echistatin (0.1 μCi, Amersham, chloramine-T labelled) were then added. After 16 hours at room temperature, the samples were measured in a scintillation measuring apparatus (Wallac 1450).

[1] = HT29, MTT after day 6, read-out: IC50 values of the cytotoxic action on tumour cell lines, HT29
[2] = SW480, MTT after day 6, read-out: IC50 values of the cytotoxic action on tumour cell lines, SW480
[3] = B16F10, MTT after day 6, read-out: IC50 values of the cytotoxic action on tumour cell lines, B16F10
[4] = IC50 values of the binding to the αvβ3 receptor
[5] = read-out: IC50 values of the binding to the αvβ3 receptor

T2 sequence (P06756 31-889 limits assumed): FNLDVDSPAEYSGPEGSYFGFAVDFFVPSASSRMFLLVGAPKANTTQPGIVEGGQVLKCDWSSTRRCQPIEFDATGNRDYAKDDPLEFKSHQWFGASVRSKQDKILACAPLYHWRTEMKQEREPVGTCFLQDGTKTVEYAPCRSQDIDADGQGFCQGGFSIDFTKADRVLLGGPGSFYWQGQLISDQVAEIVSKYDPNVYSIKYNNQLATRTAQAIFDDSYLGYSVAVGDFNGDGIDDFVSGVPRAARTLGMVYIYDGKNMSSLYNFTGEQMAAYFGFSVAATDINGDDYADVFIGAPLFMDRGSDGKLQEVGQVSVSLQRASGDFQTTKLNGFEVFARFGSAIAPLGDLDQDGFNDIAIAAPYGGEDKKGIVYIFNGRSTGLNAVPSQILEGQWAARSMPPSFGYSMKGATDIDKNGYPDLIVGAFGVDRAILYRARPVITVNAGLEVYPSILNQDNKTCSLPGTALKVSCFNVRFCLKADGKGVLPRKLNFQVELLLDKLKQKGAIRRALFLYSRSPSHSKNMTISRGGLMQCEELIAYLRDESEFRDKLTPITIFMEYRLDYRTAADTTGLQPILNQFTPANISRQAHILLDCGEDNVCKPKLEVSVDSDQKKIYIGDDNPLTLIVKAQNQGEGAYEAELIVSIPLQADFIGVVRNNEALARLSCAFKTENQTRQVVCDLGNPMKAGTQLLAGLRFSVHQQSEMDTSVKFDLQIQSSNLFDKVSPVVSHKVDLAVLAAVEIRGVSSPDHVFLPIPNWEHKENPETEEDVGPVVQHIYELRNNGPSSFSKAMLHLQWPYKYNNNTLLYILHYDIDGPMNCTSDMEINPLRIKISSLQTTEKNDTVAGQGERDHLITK
T2 sequence (P06756 891-1048 partner limits assumed): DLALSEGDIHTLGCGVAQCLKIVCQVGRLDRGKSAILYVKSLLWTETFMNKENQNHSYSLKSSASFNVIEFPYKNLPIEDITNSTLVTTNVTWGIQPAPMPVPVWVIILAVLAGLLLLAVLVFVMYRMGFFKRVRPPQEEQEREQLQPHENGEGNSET
T2 sequence (P05106 27-788): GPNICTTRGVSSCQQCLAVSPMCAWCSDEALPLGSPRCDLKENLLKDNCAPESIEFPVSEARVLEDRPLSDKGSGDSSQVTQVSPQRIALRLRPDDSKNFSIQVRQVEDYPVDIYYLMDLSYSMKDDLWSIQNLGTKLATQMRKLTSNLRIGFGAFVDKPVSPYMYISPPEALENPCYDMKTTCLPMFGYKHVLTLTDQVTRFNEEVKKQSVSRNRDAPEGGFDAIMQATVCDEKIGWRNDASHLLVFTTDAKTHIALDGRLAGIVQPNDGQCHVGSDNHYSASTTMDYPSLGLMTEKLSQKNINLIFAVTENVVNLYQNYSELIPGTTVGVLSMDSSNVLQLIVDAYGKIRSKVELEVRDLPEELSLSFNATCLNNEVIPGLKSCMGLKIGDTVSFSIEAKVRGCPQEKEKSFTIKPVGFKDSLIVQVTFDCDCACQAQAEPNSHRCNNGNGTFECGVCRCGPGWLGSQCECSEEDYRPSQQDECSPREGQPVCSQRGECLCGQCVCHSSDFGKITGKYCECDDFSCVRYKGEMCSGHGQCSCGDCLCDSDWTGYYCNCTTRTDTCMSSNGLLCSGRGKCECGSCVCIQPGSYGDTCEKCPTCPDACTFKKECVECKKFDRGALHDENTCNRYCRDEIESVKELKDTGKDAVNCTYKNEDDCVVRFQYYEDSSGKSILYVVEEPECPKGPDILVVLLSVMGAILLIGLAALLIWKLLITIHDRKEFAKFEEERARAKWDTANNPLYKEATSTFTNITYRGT

SMILES	IC50 (HT29; [1])	IC50 (SW 480; [2])	IC50 (B16F10; [3])	MMP-2 mediated cleavage Peak area product/educt x100 (MMP-2)	IC50 (αvβ3 receptor; [4])	IC50 (HT29; human, 6 days)	IC50 (SW 480; human, 6 days)	IC50 (B16F10; mouse, 6 days)	IC50 (αvβ3 receptor; [5])
CC[C@]1(OC(=O)[C@H](NC(=O)[C@@H](Cc2c[nH]cn2)NC(=O)[C@@H](CC(C)C)NC(=O)CNC(=O)[C@H](CC(C)C)NC(=O)[C@H]2CCCN2C(=S)Nc2cccc(C(CC(=O)O)NS(=O)(=O)c3cccc(-c4cccc(NC(=O)Nc5nc6ccccc6[nH]5)c4)c3)c2)C(C)C)C(=O)OCc2c1cc1n(c2=O)Cc2cc3ccccc3nc2-1 (stereo partly drawn) [Example 5] (X5-[X4][dP]LG[dL][dH][dV]-{Camptothecin(20R,20-O)})	100 nM	80 nM	350 nM	5	6000 nM				
CCCNC(=O)Nc1cccc(S(=O)(=O)Nc2cccc(C(CC(=O)O)NC(=O)Nc3ccc(NC(=S)N4CCC[C@@H]4C(=O)N[C@@H](CC(C)C)C(=O)NCC(=O)N[C@H](CC(C)C)C(=O)N[C@H](CC(N)=O)C(=O)N[C@@H](C(=O)O[C@@]4(CC)C(=O)OCc5c4cc4n(c5=O)Cc5cc6ccccc6nc5-4)C(C)C)cc3)c2)c1 (single isomer, unassigned) [Example 11]				20		200 nM	150 nM	400 nM	300 nM
CCCNC(=O)Nc1cccc(S(=O)(=O)Nc2cccc(C(CC(=O)O)NC(=O)Nc3ccc(NC(=S)N4CCC[C@@H]4C(=O)N[C@@H](CC(C)C)C(=O)NCC(=O)N[C@H](CSC)C(=O)N[C@H](Cc4c[nH]cn4)C(=O)N[C@@H](C(=O)O[C@@]4(CC)C(=O)OCc5c4cc4n(c5=O)Cc5cc6ccccc6nc5-4)C(C)C)cc3)c2)c1 (stereo partly shown) [Example 19]						80 nM	60 nM	300 nM	20 nM
CC[C@]1(OC(=O)[C@H](NC(=O)[C@@H](Cc2c[nH]cn2)NC(=O)[C@@H](CC(C)C)NC(=O)CNC(=O)[C@H](CC(C)C)NC(=O)[C@H]2CCCN2C(=O)Nc2cccc(C(CC(=O)O)NS(=O)(=O)c3ccc(-c4cccc(NC(=O)Nc5nc6ccccc6[nH]5)c4)cc3)c2)C(C)C)C(=O)OCc2c1cc1n(c2=O)Cc2cc3ccccc3nc2-1 (stereo partly drawn) [Example 7] ({X6-CO}-[dP]LG[dL][dH][dV]-{Camptothecin(20R,20-O)})	150 nM	150 nM	600 nM		700 nM				
CCCNC(=O)Nc1cccc(S(=O)(=O)Nc2cccc(C(CC(=O)O)NC(=O)Nc3ccc(NC(=S)N4CCC[C@@H]4C(=O)N[C@@H](CC(C)C)C(=O)NCC(=O)N[C@H](CC(C)C)C(=O)N[C@H](CCCCN)C(=O)N[C@H](C(=O)O[C@@]4(CC)C(=O)OCc5c4cc4n(c5=O)Cc5cc6ccccc6nc5-4)C(C)C)cc3)c2)c1 (stereo partly drawn) [Example 20] ({X1-CO}-[NH(1,4-C6H4)NHCS][dP]LG[dL][dK]V-{Camptothecin(20R,20-O)})	70 nM	50 nM	300 nM		50 nM				
